Here are results for three compounds from patent publication US20040053882A1, “Combination chemotherapy” (priority 2000, published 2004).

Series [1] has as its system A2780cisR acquired cisplatin resistant subline. Kind of series: Growth inhibition (sulforhodamine B assay), A2780cisR. As to conditions: for pIC50: A2780cisR, drug alone. Type of series: cell-based, human. Here is the method: (§1) Growth inhibition (using the sulforhodamine B assay) was determined for ZDO473 alone, and combined either simultaneously or administered sequentially (following washing) for 24 hours with paclitaxel. The effect of the drug combinations was analysed using median effect analysis.
On the technique in general: Sulforhodamine B stains cellular protein and so reports cell mass.

In series [2] the test system is A2780 E6 (A2780 subline transfected with E6 human papillomavirus gene). Kind of series: Growth inhibition (sulforhodamine B assay), A2780E6. The format is cell-based.
Series [3] relates to CH1 human ovarian carcinoma cell line. Kind of series: cells. As to conditions: read-out: IC50 growth inhibition. The procedure: as §1
The subject of series [4] is A2780 human ovarian carcinoma cell line. Kind of series: cells. Here is the method:
as §1

The conditions of series [5]: monotherapy Phase I trial, interim results; cited from earlier work.
The next series relates to ADJ/PC6cisR tumour. In words: Murine acquired cisplatin resistant tumour. As to conditions: tumour totally resistant to other platinum agents.
Series [6] has as its system cisplatin-resistant CH1 ovarian tumour xenograft. In words: Cisplatin-resistant CH1 ovarian tumour xenograft. The conditions noted are these: even when progressing on cisplatin treatment.
In another series the test system is human tumour xenografts. In words: In-vivo studies in human tumour xenografts. The conditions noted are these: compared with cisplatin.
In a further series the test system is 41McisR ovarian line. As to conditions: resistance to cisplatin due to reduced uptake.

The structures appear in SMILES notation. pIC50: −log10 of the molar value. Like-named read-outs stand apart in the source and are kept apart here.

By pIC50 is commonly meant −log10 of the IC50, conventionally taken in molar units.

With `CC(=O)O[C@H]1C(=O)[C@@]2(C)[C@H]([C@H](OC(=O)c3ccccc3)[C@]3(O)C[C@H](OC(=O)[C@H](O)[C@@H](NC(=O)c4ccccc4)c4ccccc4)C(C)=C1C3(C)C)[C@]1(OC(C)=O)CO[C@@H]1C[C@@H]2O` [Paclitaxel, paclitaxel, reference compound], the pIC50 was 8.46 in series [1] (Homo sapiens); 7.68 in [2] (Homo sapiens, A2780/E6, drug alone); 8.51 in series [3] (Homo sapiens, Ovarian carcinoma cell); 8.60 in [4] (Homo sapiens, A2780, read-out: IC50 growth inhibition).
As for `N.N.[Cl][Pt][Cl]` [cisplatin, cis-dichlorodiammine platinum (II), reference compound], in series [1] (A2780cisR versus A2780), the “acquired cisplatin resistance of subline” value was determined as 15 fold.
As for `Cc1ccccn1.N.[Cl-].[Cl-].[Pt+2]` [ZDO473, (SP-4-3)-(cis-amminedichloro-[2-methylpyridine]platinum (II)], the “cross-resistance of A2780cisR” value in [1] (A2780cisR versus A2780) was 4.2 fold. Further, the pIC50 in series [1] (96 hour continuous exposure) is 4.81; in [2] (96 hour continuous exposure, drug alone) it was 5.07; in series [3] (CH1, 96 hour continuous exposure, drug alone), 5.48; in series [4] (read-out: IC50 growth inhibition, A2780, 96 hour continuous exposure, drug alone) it was 5.43. Moreover, the dose-limiting toxicity entry in series [5] was “bone marrow suppression”. The “kidney or nerve toxicity” value in [5] was “no evidence of kidney or nerve toxicity”. The “activity against acquired cisplatin resistant murine tumour” value with ADJ/PC6cisR tumour is listed as “some activity was seen”. For the same compound, in series [6], the “activity versus cisplatin-resistant xenograft” value is on record as “Activity was retained”. The “recommended dose for phase II studies, initial” value (every 3 weeks) was 120 mg/m^2. Moreover, the current recommended dose (patients who tolerate higher doses) is given as 150 mg/m^2. In addition, where the note is “small & non-small cell lung cancer, mesothelioma, head and neck, breast and ovarian cancers”, the “antitumour activity in patients” value is “Evidence of antitumour activity has been observed”. In addition, the “activity in human tumour xenografts” value in the series with human tumour xenografts was “at least comparable and in some cases superior to that of cisplatin”. In the series on 41McisR ovarian line, the “ability to overcome cisplatin resistance” value is “showed the ability to overcome resistance”.
